Assay results from patent publication US3965109A, “Certain aryl amino pyridines” (priority 1971, dated 1976).
Like-named read-outs stand apart in the source and are kept apart here.

Tests used:
[1] = system: Agrobacterium tumifaciens; experiment: Antibacterial agar test (B1); assay type: cell-based; conditions: 50 ppm; 5 days
[2] = system: Phaedon cochleariae (mustard beetles); experiment: Pest toxicity test; assay type: in vivo
[3] = system: Pseudomonas syringae; experiment: Antibacterial agar test (B6); assay type: cell-based; conditions: 50 ppm; 5 days
[4] = system: Uncinula necator (vine); experiment: Fungicidal test against foliar disease D (foliage spray plus soil drench); assay type: in vivo; conditions: 10 days
[5] = system: Xanthomonas oryzae; assay type: cell-based; conditions: 50 ppm; 5 days
[6] = system: Pieris brassicae (cabbage white caterpillars); experiment: Pest toxicity test; assay type: in vivo; conditions: 0.1% by weight, 2 days
[7] = system: Megoura viceae; experiment: Pest toxicity test; assay type: in vivo; conditions: 0.1% by weight; broad bean; 2 days
[8] = system: Aphis fabae; experiment: Pest toxicity test; assay type: in vivo; conditions: 0.1% by weight; broad bean; 2 days
[9] = system: Streptomyces scabies; experiment: Antibacterial agar test (B7); assay type: cell-based; conditions: 50 ppm; 5 days
[10] = system: Erwinia carotovora; experiment: Antibacterial agar test (B4); assay type: cell-based; conditions: 50 ppm; 5 days
[11] = system: Aedes aegypti (mosquito adults); experiment: Pest toxicity test; assay type: in vivo; conditions: 0.01% by weight; plywood; 1 day
[12] = system: Tetranychus telarius (red spider mites, eggs); experiment: Pest toxicity test; assay type: in vivo; conditions: 0.1% by weight; French bean; 3 days
[13] = system: Plutella maculipennis (diamond back moth larvae); experiment: Pest toxicity test; assay type: in vivo
[14] = system: Tetranychus telarius (red spider mites, adults); experiment: Pest toxicity test; assay type: in vivo; conditions: 0.1% by weight; French bean; 3 days
[15] = system: Musca domestica (houseflies); experiment: Pest toxicity test, contact test; assay type: in vivo; conditions: 0.1% by weight; milk/sugar; 2 days; flies sprayed directly
[16] = system: Corynebacterium michiganense; experiment: Antibacterial agar test (B2); assay type: cell-based; conditions: 50 ppm; 5 days
Procedure: (§1) This Example illustrates the activity of compounds used as the active ingredients of compositions according to the invention against a variety of plant bacterial diseases and fungal post-harvest saprophytic diseases. In a test for such activity, 5 milligrams of the compound to be tested was dissolved or suspended in 10 ml. of acetone and enough of this solution or suspension was added to 18 ml. of nutrient agar (for the bacterial diseases) or 16 ml. of 2% malt agar (for the fungal diseases) to give a final concentration of 50 parts per million of the compound under test. A streptomycin preparation (2 ml. containing 100 units per ml.) was added to the malt agar to prevent bacterial contamination of the fungal tests.
(§2) The agar preparations were dried overnight in Petri dishes and inoculated the following morning with the bacterial or fungal diseases using a multipoint inoculator. The antibacterial activity was assessed after 5 days and the antifungal activity after 6 days. The results of the tests are set out in Table 16 (anti bacterial activity) and Table 17 (antifungal activity). The results are graded as in Example 1 above.

[17] = system: Xanthomonas malvacearum; experiment: Antibacterial agar test (B3); assay type: cell-based; conditions: 50 ppm; 5 days
Procedure: as §1, §2

[18] = system: Plasmopara viticola (vine); experiment: Fungicidal test against foliar disease C (foliage spray plus soil drench); assay type: in vivo; conditions: 10 days
[19] = system: Puccinia recondita (wheat); experiment: Fungicidal test against foliar disease A (foliage spray plus soil drench); assay type: in vivo; conditions: 10 days
[20] = system: Aedes aegypti (mosquito larvae); experiment: Pest toxicity test; assay type: in vivo; conditions: for Mortality grading (kill): 0.01% by weight, water, 1 day; for abnormal growth effects in larva of mosquitos: in vivo
[21] = system: Agriolimax reticulatus (slugs); experiment: Molluscicidal activity test; assay type: in vivo, Agriolimax reticulatus (Mull); conditions: pellet with 4% by weight; 6 days; 10°C
Procedure: A weighed sample of the compound under test was dissolved in 0.5 c.c. of an ethanol and acetone mixture 50:50 v/v). The solution was diluted with 0.5 cc water and poured onto a calf feeding pellet in a glass Petri dish. The pellet was then air dried for 24 hours. The weight of compound used was chosen so that the dried pellet contained 4% by weight of the active ingredient. Two replicates each consisting of a plastic Petri dish containing a pellet, 2 slugs, and a moistened filter paper to maintain a high relative humidity were used in each test. The dishes were left in a cold room (10°C.) After 6 days the kill was assessed.
The slugs used were Agriolimax reticulatus (Mull), and they had been starved for 24 hours before the commencement of the tests.

[22] = system: Phytophthora infestans (tomato); assay type: in vivo; conditions: 50 ppm spray + 200 ppm soil drench; 3 days
[23] = system: Piricularia oryzae (rice); assay type: in vivo; conditions: 7 days
[24] = 0.1% by weight, mustard/paper, 2 days
[25] = 50 ppm spray + 200 ppm soil drench

SMILES	Antibacterial activity grading B1 [1]	Antibacterial activity grading B6 [3]	Antibacterial activity grading B5 [5]	Mortality grading (kill) [6]	Mortality grading (kill) [7]	Mortality grading (kill) [8]	Antibacterial activity grading B7 [9]	Antibacterial activity grading B4 [10]	Mortality grading (kill) [11]	Mortality grading (kill) [12]	Mortality grading (kill) [14]	Mortality grading (kill), contact test [15]	Antibacterial activity grading B2 [16]	Antibacterial activity grading B3 [17]	Mortality grading (kill) [20]	Mortality grading (kill) ([2]; in vivo)	Mortality grading (kill) ([13]; in vivo)	abnormal growth effects in larva of mosquitos [20]	further results
O=[N+]([O-])c1ccc(Nc2c(Cl)c(Cl)nc(Cl)c2Cl)c(C(F)(F)F)c1 [Compound 41, 4(4-Nitro-2-trifluoromethylanilino)-tetrachloropyridine]	3 (0 to 5)	1 (26 to 60)	1 (26 to 60)	0 (O represents less than 30% kill)	0 (O represents less than 30% kill)	0 (O represents less than 30% kill)	0 (61 to 100)	1 (26 to 60)	0 (O represents less than 30% kill)	3 (3 represents over 90% kill)	3 (3 represents over 90% kill)	2 (2 represents 60 - 90% kill)	0 (61 to 100)	2 (6 to 25)	3 (3 represents over 90% kill)				Mortality grading (kill) [2, 24]: 2 (2 represents 60 - 90% kill); Amount of disease grading, disease D (Table 4) ([4]; 100 ppm spray and drench): 3 (0 to 5); Mortality grading (kill) [13, 24]: 1 (1 represents 30 - 49% kill); Amount of disease grading, disease C (Table 4) ([18]; 100 ppm spray and drench): 3 (0 to 5); Amount of disease grading, disease A (Table 4) ([19]; 100 ppm spray and drench): 0 (61 to 100)
O=[N+]([O-])c1ccc(Nc2c(Cl)c(Cl)nc(Cl)c2Cl)c([N+](=O)[O-])c1 [Compound 8, Tetrachloro-4(2,4-dinitroanilino)pyridine]				0 (O represents less than 30% kill)	0 (O represents less than 30% kill)	0 (O represents less than 30% kill)			0 (O represents less than 30% kill)	3 (3 represents over 90% kill)	3 (3 represents over 90% kill)	0 (O represents less than 30% kill)			0 (O represents less than 30% kill)	0 (key: O represents less than 30% kill; 1 represents 30 - 49% kill; 2 represents 60 - 90% kill; 3 represents over 90% kill; C indicates a chemosterilant effect.; A indicates an antifeeding effect.)	0 (key: O represents less than 30% kill; 1 represents 30 - 49% kill; 2 represents 60 - 90% kill; 3 represents over 90% kill; C indicates a chemosterilant effect.; A indicates an antifeeding effect.)	abnormal growth effects	% Kill of slugs [21]: 100%; Amount of disease grading, disease D [4, 25]: 0 (61 to 100); Amount of disease grading, disease B [22]: 3 (0 to 5); Amount of disease grading, disease E [23, 25]: 0 (61 to 100); Amount of disease grading, disease C [18, 25]: 3 (0 to 5); Amount of disease grading, disease A [19, 25]: 0 (61 to 100)
Fc1nc(F)c(Cl)c(Nc2c(F)c(F)c(F)c3c(F)c(F)c(F)c(F)c23)c1Cl [Compound 20, 3,5-Dichloro-2,6-difluoro-4(1-heptafluoronaphthylamino)pyridine]	0 (61 to 100)	2 (6 to 25)	1 (26 to 60)	0 (O represents less than 30% kill)	2 (2 represents 60 - 90% kill)	2 (2 represents 60 - 90% kill)	2 (6 to 25)	2 (6 to 25)	0 (O represents less than 30% kill)	3 (3 represents over 90% kill)	3 (3 represents over 90% kill)	0 (O represents less than 30% kill)	3 (0 to 5)	3 (0 to 5)	1 (1 represents 30 - 49% kill)	0 (key: O represents less than 30% kill; 1 represents 30 - 49% kill; 2 represents 60 - 90% kill; 3 represents over 90% kill; C indicates a chemosterilant effect.; A indicates an antifeeding effect.)	3 (key: O represents less than 30% kill; 1 represents 30 - 49% kill; 2 represents 60 - 90% kill; 3 represents over 90% kill; C indicates a chemosterilant effect.; A indicates an antifeeding effect.)		Amount of disease grading, disease E ([23]; 100 ppm spray and drench): 2 (6 to 25); Amount of disease grading, disease C ([18]; 100 ppm spray and drench): 3 (0 to 5); Amount of disease grading, disease A ([19]; 100 ppm spray and drench): 3 (0 to 5)
O=[N+]([O-])c1ccc(Nc2c(Cl)c(F)nc(F)c2Cl)c([N+](=O)[O-])c1 [Compound 1, 3,5-dichloro-2,6-difluoro-4(2,4-dinitroanilinopyridine]	3 (0 to 5)	3 (0 to 5)	3 (0 to 5)		3 (3 represents over 90% kill)	3 (3 represents over 90% kill)	3 (0 to 5)	3 (0 to 5)	2 (2 represents 60 - 90% kill)	0 (O represents less than 30% kill)	3 (3 represents over 90% kill)	0 (O represents less than 30% kill)	3 (0 to 5)	3 (0 to 5)	0 (O represents less than 30% kill)	0 (key: O represents less than 30% kill; 1 represents 30 - 49% kill; 2 represents 60 - 90% kill; 3 represents over 90% kill; C indicates a chemosterilant effect.; A indicates an antifeeding effect.)	0 (key: O represents less than 30% kill; 1 represents 30 - 49% kill; 2 represents 60 - 90% kill; 3 represents over 90% kill; C indicates a chemosterilant effect.; A indicates an antifeeding effect.)	abnormal growth effects	
